Source: patent US7674801B2 (AstraZeneca AB, priority 2006, dated 2010)
In brackets after ≈: the same amount, converted by molar mass.

tested on: Streptococcus pneumoniae; test: Bacterial susceptibility testing in liquid media (MIC); type: cell-based; settings: 37° C., 24 hrs
Protocol: Compounds were tested for antimicrobial activity by susceptibility testing in liquid media. Compounds were dissolved in dimethylsulfoxide and tested in 10 doubling dilutions in the susceptibility assays. The organisms used in the assay were grown overnight on suitable agar media and then suspended in a liquid medium appropriate for the growth of the organism. The suspension was a 0.5 McFarland and a further 1 in 10 dilution was made into the same liquid medium to prepare the final organism suspension in 100 μL. Plates were incubated under appropriate conditions at 37° C. for 24 hrs prior to reading. The Minimum Inhibitory Concentration was determined as the lowest drug concentration able to reduce growth by 80% or more.

SMILES	MIC (lowest concentration reducing growth by 80% or more) [µg/mL]
CCCCNC(=O)c1nc(-c2ccc(NC(=O)NCC)nc2)sc1C(=O)O [Example 26, 4-[(Butylamino)carbonyl]-2-(6-{[(ethylamino)carbonyl]amino}pyridin-3-yl)-1,3-thiazole-5-carboxylic acid]	2.0 (≈ 5.11 µM)

target: S. aureus (SAU) GyrB ATPase (Staphylococcus aureus, UniProt P0A0K8); test: S. aureus GyrB ATPase inhibition, ammonium molybdate/malachite green phosphate detection assay; type: biochemical; settings: compound concentration 12.5 μM; 12.5 µM
Procedure, shortened: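 Phosphate from ATP hydrolysis (500 μM ATP) read as malachite green/molybdate absorbance at 650 nm after acid quench. Reaction: 1.25 nM S. aureus GyrB plus 1.25 nM E. coli GyrA, sheared DNA, Hepes pH 7.5 with Mg2+. IC50 fitted over 10 concentrations, normalised to DMSO (2%) and novobiocin (2 μM) controls.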

Chain of S. aureus (SAU) GyrB ATPase (P0A0K8 whole entry): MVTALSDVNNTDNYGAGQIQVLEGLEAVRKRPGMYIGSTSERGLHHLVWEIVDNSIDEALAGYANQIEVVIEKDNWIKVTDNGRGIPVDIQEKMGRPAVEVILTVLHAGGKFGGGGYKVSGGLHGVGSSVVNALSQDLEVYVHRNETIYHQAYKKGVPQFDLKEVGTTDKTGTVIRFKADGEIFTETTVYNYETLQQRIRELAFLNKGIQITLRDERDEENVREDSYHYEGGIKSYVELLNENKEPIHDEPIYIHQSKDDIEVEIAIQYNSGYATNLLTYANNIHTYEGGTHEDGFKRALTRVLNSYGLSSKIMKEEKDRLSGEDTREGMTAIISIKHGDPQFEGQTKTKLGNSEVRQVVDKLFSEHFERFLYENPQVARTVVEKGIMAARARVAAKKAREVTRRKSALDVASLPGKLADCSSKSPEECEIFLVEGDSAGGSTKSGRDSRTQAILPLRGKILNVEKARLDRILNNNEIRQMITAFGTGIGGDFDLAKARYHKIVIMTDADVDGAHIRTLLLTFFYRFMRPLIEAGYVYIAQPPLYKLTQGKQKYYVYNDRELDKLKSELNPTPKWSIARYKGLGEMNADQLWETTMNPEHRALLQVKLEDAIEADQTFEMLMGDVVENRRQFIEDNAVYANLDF
Chain of S. aureus (SAU) GyrB ATPase (P0AES4 whole entry, further chain): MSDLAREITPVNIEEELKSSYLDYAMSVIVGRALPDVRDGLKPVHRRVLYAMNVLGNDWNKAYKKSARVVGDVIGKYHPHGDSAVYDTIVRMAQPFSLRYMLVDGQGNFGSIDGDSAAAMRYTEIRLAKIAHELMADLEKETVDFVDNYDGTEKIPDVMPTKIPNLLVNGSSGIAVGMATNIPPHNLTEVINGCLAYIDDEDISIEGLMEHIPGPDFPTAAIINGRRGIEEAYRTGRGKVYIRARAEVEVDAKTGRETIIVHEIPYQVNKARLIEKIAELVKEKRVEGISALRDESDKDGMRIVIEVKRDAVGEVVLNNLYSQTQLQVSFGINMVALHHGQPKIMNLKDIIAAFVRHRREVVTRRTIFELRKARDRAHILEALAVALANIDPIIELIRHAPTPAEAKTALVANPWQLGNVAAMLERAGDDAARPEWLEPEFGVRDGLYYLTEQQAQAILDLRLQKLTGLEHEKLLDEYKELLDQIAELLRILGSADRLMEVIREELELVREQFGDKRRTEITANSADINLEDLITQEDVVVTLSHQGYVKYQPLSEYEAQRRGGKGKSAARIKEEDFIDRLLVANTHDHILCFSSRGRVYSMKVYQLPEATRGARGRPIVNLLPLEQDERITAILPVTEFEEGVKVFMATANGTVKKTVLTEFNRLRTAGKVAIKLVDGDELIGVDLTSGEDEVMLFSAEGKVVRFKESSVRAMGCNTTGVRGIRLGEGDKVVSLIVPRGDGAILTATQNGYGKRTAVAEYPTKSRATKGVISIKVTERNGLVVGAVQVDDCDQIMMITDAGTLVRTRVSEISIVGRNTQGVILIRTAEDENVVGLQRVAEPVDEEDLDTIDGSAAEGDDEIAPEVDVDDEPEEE

SMILES	S. aureus (SAU) GyrB ATPase % Inhibition [%]
CCNC(=O)Nc1ccc(-c2nc(-c3ncnn3C)c(C(=O)O)s2)cn1 [Example 147, 2-(6-{[(ethylamino)carbonyl]amino}pyridin-3-yl)-4-(1-methyl-1H-1,2,4-triazol-5-yl)-1,3-thiazole-5-carboxylic acid]	94.65

same assay, conditions: read-out: S. aureus (SAU) GyrB ATPase % Inhibition, compound concentration 12.5 μM

SMILES	inhibition at 12.5 µM [%]
CCCCNC(=O)c1nc(-c2ccc(NC(=O)NCC)nc2)sc1C(=O)O [Example 26, 4-[(Butylamino)carbonyl]-2-(6-{[(ethylamino)carbonyl]amino}pyridin-3-yl)-1,3-thiazole-5-carboxylic acid]	70.5
CCNC(=O)Nc1ncc(-c2nc3cccc(C(=O)OCC)c3s2)cn1 [Example 135, ethyl 2-(2-{[(ethylamino)carbonyl]amino}pyrimidin-5-yl)-1,3-benzothiazole-7-carboxylate]	0.52
CCNC(=O)Nc1ccc(-c2cccc3nc(C(=O)OCC)cn23)cn1 [Example 136, ethyl 5-(6-{[(ethylamino)carbonyl]amino}pyridin-3-yl)imidazo[1,2-a]pyridine-2-carboxylate]	61
CCNC(=O)Nc1cc(-c2cccc(C(=O)OCC)c2)ccn1 [Example 137, ethyl 3-(2-{[(ethylamino)carbonyl]amino}pyridin-4-yl)benzoate]	86.9
CCNC(=O)Nc1cc(-c2ccc(C(=O)OCC)cc2)ccn1 [Example 138, ethyl 4-(2-{[(ethylamino)carbonyl]amino}pyridin-4-yl)benzoate]	94.8
CCNC(=O)Nc1ccc(-c2ccc3nc(C)c(C(=O)OCC)n3c2)cn1 [Example 139, ethyl 6-(6-{[(ethylamino)carbonyl]amino}pyridin-3-yl)-2-methylimidazo[1,2-a]pyridine-3-carboxylate]	96.7
CCNC(=O)Nc1ccc(-c2nc(C(=O)N(C)C)c(C(=O)OCC)s2)cn1 [Example 140, ethyl 4-[(dimethylamino)carbonyl]-2-(6-{[(ethylamino)carbonyl]amino}pyridin-3-yl)-1,3-thiazole-5-carboxylate]	76.6
CCNC(=O)Nc1cc(-c2nc(C(C)(C)C)cs2)c(-c2cncc(C(=O)OCC)c2)cn1 [Example 141, ethyl 4′-(4-tert-butyl-1,3-thiazol-2-yl)-6′-{[(ethylamino)carbonyl]amino}-3,3′-bipyridine-5-carboxylate]	99.2
CCNC(=O)Nc1nc(-c2cccc(C(=O)O)c2)cs1 [Example 142, 3-(2-{[(ethylamino)carbonyl]amino}-1,3-thiazol-4-yl)benzoic acid]	0.68
CCNC(=O)Nc1cc(-c2cccc(C(=O)O)c2)ccn1 [Example 143, 3-(2-{[(ethylamino)carbonyl]amino}pyridin-4-yl)benzoic acid]	99.1
CCNC(=O)Nc1cc(-c2ccc(C(=O)O)cc2)ccn1 [Example 144, 4-(2-{[(ethylamino)carbonyl]amino}pyridin-4-yl)benzoic acid]	38.6
CCNC(=O)Nc1cc(-c2nc(C(C)(C)C)cs2)c(-c2cncc(C(=O)O)c2)cn1 [Example 145, 4′-(4-tert-butyl-1,3-thiazol-2-yl)-6′-{[(ethylamino)carbonyl]amino}-3,3′-bipyridine-5-carboxylic acid]	101
CCNC(=O)Nc1ccc(-c2cccc(CC(=O)O)c2)cn1 [Example 146, [3-(6-{[(ethylamino)carbonyl]amino}pyridin-3-yl)phenyl]acetic acid]	64.3
CCNC(=O)Nc1ccc(-c2ccc3nc(C)c(C(=O)O)n3c2)cn1 [Example 148, 6-(6-{[(ethylamino)carbonyl]amino}pyridin-3-yl)-2-methylimidazo[1,2-a]pyridine-3-carboxylic acid]	94.2
CCNC(=O)Nc1ccc(-c2nc(C(=O)N(C)C)c(C(=O)O)s2)cn1 [Example 149, 4-[(dimethylamino)carbonyl]-2-(6-{[(ethylamino)carbonyl]amino}pyridin-3-yl)-1,3-thiazole-5-carboxylic acid]	97.5
CCCCNC(=O)c1nc(-c2cnc(NC(=O)NCC)cc2-c2nc(CC)cs2)sc1C(=O)O [Example 150, 4-[(butylamino)carbonyl]-2-[6-{[(ethylamino)carbonyl]amino}-4-(4-ethyl-1,3-thiazol-2-yl)pyridin-3-yl]-1,3-thiazole-5-carboxylic acid]	100
CCNC(=O)Nc1cccc(-c2cccc(C(N)=O)c2)n1 [Example 151, 3-(6-{[(ethylamino)carbonyl]amino}pyridin-2-yl)benzamide]	97.7
CCNC(=O)Nc1ccc(-c2nc(C(N)=O)c(C(N)=O)s2)cn1 [Example 152, 2-(6-{[(ethylamino)carbonyl]amino}pyridin-3-yl)-1,3-thiazole-4,5-dicarboxamide]	69.4
CCNC(=O)Nc1ccc(-c2nc(C(C)=O)c(C(=O)N(C)C)s2)cn1 [Example 153, 4-acetyl-2-(6-{[(ethylamino)carbonyl]amino}pyridin-3-yl)-N,N-dimethyl-1,3-thiazole-5-carboxamide]	71.4
CCNC(=O)Nc1ccc(-c2nc(C(C)=O)c(C(N)=O)s2)cn1 [Example 154, 4-acetyl-2-(6-{[(ethylamino)carbonyl]amino}pyridin-3-yl)-1,3-thiazole-5-carboxamide]	99.8
CCNC(=O)Nc1ccc(-c2ccc3nc(C)c(C(N)=O)n3c2)cn1 [Example 155, 6-(6-{[(ethylamino)carbonyl]amino}pyridin-3-yl)-2-methylimidazo[1,2-a]pyridine-3-carboxamide]	82.3
CCNC(=O)Nc1cccc(-c2cccc(C(=O)N(C)C)c2)n1 [Example 156, 3-(6-{[(ethylamino)carbonyl]amino}pyridin-2-yl)-N,N-dimethylbenzamide]	43
CCNC(=O)Nc1ccc(-c2nc(-c3ncnn3C)c(C(N)=O)s2)cn1 [Example 157, 2-(6-{[(ethylamino)carbonyl]amino}pyridin-3-yl)-4-(1-methyl-1H-1,2,4-triazol-5-yl)-1,3-thiazole-5-carboxamide]	101
CCCCNC(=O)c1sc(-c2ccc(NC(=O)NCC)nc2)nc1C(=O)N(C)C [Example 158, N^5-butyl-2-(6-{[(ethylamino)carbonyl]amino}pyridin-3-yl)-N^4,N^4-dimethyl-1,3-thiazole-4,5-dicarboxamide]	92.6
CCNC(=O)Nc1ccc(-c2nc(C(=O)N(C)C)c(C(=O)NC(C)(C)C)s2)cn1 [Example 159, N^5-(tert-butyl)-2-(6-{[(ethylamino)carbonyl]amino}pyridin-3-yl)-N^4,N^4-dimethyl-1,3-thiazole-4,5-dicarboxamide]	95.3
CCNC(=O)Nc1cc(-c2nc(CC)cs2)c(-c2cccc(C(=O)N(C)C)c2)cn1 [Example 160, 3-[6-{[(ethylamino)carbonyl]amino}-4-(4-ethyl-1,3-thiazol-2-yl)pyridin-3-yl]-N,N-dimethylbenzamide]	95.5
CCNC(=O)Nc1cc(-c2nc(CC)cs2)c(-c2cncc(C(=O)N(C)C)c2)cn1 [Example 161, 6′-{[(ethylamino)carbonyl]amino}-4′-(4-ethyl-1,3-thiazol-2-yl)-N,N-dimethyl-3,3′-bipyridine-5-carboxamide]	101
CCCCNC(=O)c1nc(-c2cnc(NC(=O)NCC)cc2-c2nc(CC)cs2)sc1C(=O)N(C)C [Example 162, N^4-butyl-2-[6-{[(ethylamino)carbonyl]amino}-4-(4-ethyl-1,3-thiazol-2-yl)pyridin-3-yl]-N~5~,N~5~-dimethyl-1,3-thiazole-4,5-dicarboxamide]	101
CCCCNC(=O)c1csc(-c2cnc(NC(=O)NCC)cc2-c2ccccc2)n1 [Example 163, N-butyl-2-(6-{[(ethylamino)carbonyl]amino}-4-phenylpyridin-3-yl)-1,3-thiazole-4-carboxamide]	97.8
CCNC(=O)Nc1cc(-c2nc(C(C)(C)C)cs2)c(-c2cncc(C(=O)NC)c2)cn1 [Example 164, 4′-(4-tert-butyl-1,3-thiazol-2-yl)-6′-{[(ethylamino)carbonyl]amino}-N-methyl-3,3′-bipyridine-5-carboxamide]	88.1
